Reference: patent publication US10206399B2, “Herbicidal composition comprising uracil compound as active ingredient” (Dongbu Farm Hannong Co., Ltd., priority 2012, dated 2019)
Read-outs that look alike come from different tables or passages of the source.

What was measured:
[1] = system: ryegrass; assay: Nonselective composition of 1 uracil compound and 2 herbicidally active compounds, plant mortality; type: in vivo; conditions: 480 h, read-out: ryegrass mortality (measured value)
Excerpt: (§1) X is % damage by uracil compound (a) of formula 1 at the rate of application of p kg/ha; Y is % damage by conventional herbicidal compound (b) at the rate of application of q kg/ha; and E is the expected damage caused by compounds (a) and (b) at a rate of application of p and q kg/ha.
(§2) The expected activity for a given combination of two herbicides can be calculated using equation 1 above.

[2] = system: wild amaranth; assay: as above; type: in vivo; conditions: Amaranthus caudatus, 480 h, read-out: Wild amaranth mortality (measured value)
Excerpt: as §1, §2

[3] = system: Echinochloa crus; conditions: for Echinochloa crus mortality, measured value: 20 days after treatment; for plant mortality, measured value: Echinochloa crus
Excerpt: as §1, §2

[4] = system: Digitaria sanguinalis; conditions: for Digitaria sanguinalis mortality, measured value: 20 days after treatment; for plant mortality, measured value: Digitaria sanguinalis
Excerpt: as §1, §2

[5] = system: Abutilon theophrasti; conditions: for Abutilon theophrasti mortality, measured value: 20 days after treatment; for plant mortality, measured value: Abutilon theophrasti
Excerpt: as §1, §2

[6] = system: Aeschynomene indica; conditions: for Aeschynomene indica mortality, measured value: 20 days after treatment; for plant mortality, measured value: Aeschynomene indica
Excerpt: as §1, §2

[7] = system: Xanthium spinosum; conditions: for Xanthium spinosum mortality, measured value: 20 days after treatment; for plant mortality, measured value: Xanthium spinosum
Excerpt: as §1, §2

[8] = system: Monochoria vaginalis; assay: Paddy field farming herbicidal composition test, plant mortality; type: in vivo; conditions: 17.5 g/ha
Excerpt: as §1, §2

[9] = system: Echinochloa crus; assay: as above; type: in vivo; conditions: 17.5 g/ha
Excerpt: as §1, §2

Structure (SMILES): C[C@H](NC(=O)[C@H](C)NC(=O)[C@@H](N)CCP(C)(=O)O)C(=O)O [Bilanafos]
- pest or weed control at 500 g/ha ([1]; 500 g ai/ha): 30%
- pest or weed control at 500 g/ha ([2]; 500 g ai/ha): 15%

Structure (SMILES): CC(Oc1ccc(Oc2ccc(Cl)cc2Cl)cc1)C(=O)O (centres unmarked) [Diclofop]
- pest or weed control at 175 g/ha [1]: 30%
- pest or weed control at 175 g/ha [2]: 0%

Structure (SMILES): CC1(C)CON(Cc2ccccc2Cl)C1=O [Clomazone]
- pest or weed control at 175 g/ha [1]: 15%
- pest or weed control at 175 g/ha [2]: 30%

Structure (SMILES): C[C@@H](Oc1ccc(Oc2ncc(Cl)cc2F)cc1)C(=O)O [Clodinafop, reference compound]
- Echinochloa crus mortality, measured value ([3]; 15 g/ha): 25%
- Echinochloa crus mortality, measured value ([3]; 30 g/ha): 53%
- Digitaria sanguinalis mortality, measured value ([4]; 15 g/ha): 21%
- Digitaria sanguinalis mortality, measured value ([4]; 30 g/ha): 50%
- Abutilon theophrasti mortality, measured value ([5]; 15 g/ha): 0%
- Abutilon theophrasti mortality, measured value ([5]; 30 g/ha): 0%
- Aeschynomene indica mortality, measured value ([6]; 15 g/ha): 0%
- Aeschynomene indica mortality, measured value ([6]; 30 g/ha): 0%
- Xanthium spinosum mortality, measured value ([7]; 15 g/ha): 0%
- Xanthium spinosum mortality, measured value ([7]; 30 g/ha): 0%

Structure (SMILES): O=C(O)COc1ccc(Cl)cc1Cl [2,4-D)]
- Data (measured value) Echinochloa crus ([3]; 200 g/ha): 0
- Data (measured value) Echinochloa crus ([3]; 400 g/ha): 0
- Data (measured value) Digitaria sanguinalis ([4]; 200 g/ha): 0
- Data (measured value) Digitaria sanguinalis ([4]; 400 g/ha): 0
- Data (measured value) Abutilon theophrasti ([5]; 200 g/ha): 21
- Data (measured value) Abutilon theophrasti ([5]; 400 g/ha): 47
- Data (measured value) Aeschynomene indica ([6]; 200 g/ha): 24
- Data (measured value) Aeschynomene indica ([6]; 400 g/ha): 51
- Data (measured value) Xanthium spinosum ([7]; 200 g/ha): 22
- Data (measured value) Xanthium spinosum ([7]; 400 g/ha): 50

Structure (SMILES): Cc1cc(Cl)ccc1OCCCC(=O)O [MCPB]
- plant mortality, measured value ([3]; 75 g/ha): 9
- plant mortality, measured value ([3]; 150 g/ha): 27
- plant mortality, measured value ([3]; 300 g/ha): 57
- plant mortality, measured value ([4]; 75 g/ha): 12
- plant mortality, measured value ([4]; 150 g/ha): 25
- plant mortality, measured value ([4]; 300 g/ha): 56
- plant mortality, measured value ([5]; 75 g/ha): 11
- plant mortality, measured value ([5]; 150 g/ha): 22
- plant mortality, measured value ([5]; 300 g/ha): 52
- plant mortality, measured value ([6]; 75 g/ha): 13
- plant mortality, measured value ([6]; 150 g/ha): 32
- plant mortality, measured value ([6]; 300 g/ha): 64
- plant mortality, measured value ([7]; 75 g/ha): 12
- plant mortality, measured value ([7]; 150 g/ha): 27
- plant mortality, measured value ([7]; 300 g/ha): 58

Structure (SMILES): O=C(O)COc1ccc(Cl)cc1Cl [2,4-D]
- Data (measured value) Echinochloa crus ([3]; 100 g/ha): 0
- plant mortality, measured value ([3]; 100 g/ha): 0
- plant mortality, measured value ([3]; 200 g/ha): 0
- plant mortality, measured value ([3]; 400 g/ha): 0
- Data (measured value) Digitaria sanguinalis ([4]; 100 g/ha): 0
- plant mortality, measured value ([4]; 100 g/ha): 0
- plant mortality, measured value ([4]; 200 g/ha): 0
- plant mortality, measured value ([4]; 400 g/ha): 0
- Data (measured value) Abutilon theophrasti ([5]; 100 g/ha): 7
- plant mortality, measured value ([5]; 100 g/ha): 7
- plant mortality, measured value ([5]; 200 g/ha): 21
- plant mortality, measured value ([5]; 400 g/ha): 47
- Data (measured value) Aeschynomene indica ([6]; 100 g/ha): 7
- plant mortality, measured value ([6]; 100 g/ha): 7
- plant mortality, measured value ([6]; 200 g/ha): 24
- plant mortality, measured value ([6]; 400 g/ha): 51
- Data (measured value) Xanthium spinosum ([7]; 100 g/ha): 10
- plant mortality, measured value ([7]; 100 g/ha): 10
- plant mortality, measured value ([7]; 200 g/ha): 22
- plant mortality, measured value ([7]; 400 g/ha): 50

Structure (SMILES): C[C@@H](Oc1ccc(Oc2nc3ccc(Cl)cc3o2)cc1)C(=O)N(C)c1ccccc1F [Metamifop, reference compound]
- Echinochloa crus mortality, measured value ([3]; 25 g/ha): 11%
- plant mortality, measured value ([3]; 25 g/ha): 11
- Echinochloa crus mortality, measured value ([3]; 50 g/ha): 26%
- plant mortality, measured value ([3]; 50 g/ha): 26
- Echinochloa crus mortality, measured value ([3]; 100 g/ha): 57%
- plant mortality, measured value ([3]; 100 g/ha): 57
- Digitaria sanguinalis mortality, measured value ([4]; 25 g/ha): 11%
- plant mortality, measured value ([4]; 25 g/ha): 11
- Digitaria sanguinalis mortality, measured value ([4]; 50 g/ha): 23%
- plant mortality, measured value ([4]; 50 g/ha): 23
- Digitaria sanguinalis mortality, measured value ([4]; 100 g/ha): 48%
- plant mortality, measured value ([4]; 100 g/ha): 48
- Abutilon theophrasti mortality, measured value ([5]; 25 g/ha): 0%
- plant mortality, measured value ([5]; 25 g/ha): 0
- Abutilon theophrasti mortality, measured value ([5]; 50 g/ha): 0%
- plant mortality, measured value ([5]; 50 g/ha): 0
- Abutilon theophrasti mortality, measured value ([5]; 100 g/ha): 0%
- plant mortality, measured value ([5]; 100 g/ha): 0
- Aeschynomene indica mortality, measured value ([6]; 25 g/ha): 0%
- plant mortality, measured value ([6]; 25 g/ha): 0
- Aeschynomene indica mortality, measured value ([6]; 50 g/ha): 0%
- plant mortality, measured value ([6]; 50 g/ha): 0
- Aeschynomene indica mortality, measured value ([6]; 100 g/ha): 0%
- plant mortality, measured value ([6]; 100 g/ha): 0
- Xanthium spinosum mortality, measured value ([7]; 25 g/ha): 0%
- plant mortality, measured value ([7]; 25 g/ha): 0
- Xanthium spinosum mortality, measured value ([7]; 50 g/ha): 0%
- plant mortality, measured value ([7]; 50 g/ha): 0
- Xanthium spinosum mortality, measured value ([7]; 100 g/ha): 0%
- plant mortality, measured value ([7]; 100 g/ha): 0

Structure (SMILES): COc1cc(OC)nc(NC(=O)NS(=O)(=O)Nc2ccccc2C(=O)N(C)C)n1 [Orthosulfamuron]
- Monochoria vaginalis mortality (measured value) [8]: 40
- Echinochloa crus mortality, measured value [9]: 10

Structure (SMILES): C=CCOC(=O)C(C)(C)OC(=O)c1cc(-n2c(=O)cc(C(F)(F)F)n(C)c2=O)ccc1Cl [(Butafenacil]
- plant mortality, measured value ([3]; 16 g/ha): 5
- plant mortality, measured value ([4]; 16 g/ha): 5
- plant mortality, measured value ([5]; 16 g/ha): 51
- plant mortality, measured value ([6]; 16 g/ha): 67
- plant mortality, measured value ([7]; 16 g/ha): 54
